Data set [1] concerns the target T1, Cholinesterase (Homo sapiens, UniProt P06276). As to the kind of experiment: Inhibition of human recombinant BChE using butyrylthiocholine as substrate preincubated for 300 secs followed by substrate addition and measured for 1 min by Ellman's assay. Background: In Ellman's method for cholinesterases, released thiocholine reacts with DTNB.
Data set [2] is described as follows: Binding affinity to Cu2+ assessed as decrease in hydroxyl radical formation at 40 uM by CCA ascorbate assay.
The target in data set [3] is T1, Cholinesterase.
Description: Inhibition of human BChE using butyrylthiocholine iodide as substrate preincubated for 5 mins followed by substrate addition and measured for 1 min by Ellman's assay
For data set [4], the target named is Acetylcholinesterase (AChE) (Homo sapiens, UniProt P22303). Briefly: in vitro. The settings on record: human AChE enzyme, probe acetylthiocholine iodide.
Description: Inhibition of human AChE using acetylthiocholine iodide as substrate assessed as residual activity at 10 uM preincubated for 5 mins followed by substrate addition and measured for 1 min by Ellman's assay relative to control
Data set [5] in a line: Metal chelating activity of the compound assessed as Ca2+-compound complex formation at 30 uM after 5 mins by UV-vis spectrophotometric analysis.
Data set [6] deals with SH-SY5Y. Briefly: Neuroprotection activity against amyloid beta (1 to 42)-induced toxicity in human SH-SY5Y cells at 1 uM preincubated with amyloid beta (1 to 42) for 24 hrs followed by cell addition and measured after 48 hrs by MTS assay. The format is functional, cell-based. Background: Tetrazolium assays rely on reduction of a dye to a coloured formazan, in cell work by metabolically active cells.

Data set [7] can be described thus: Metal chelating activity of the compound assessed as Ni2+-compound complex formation at 30 uM after 5 mins by UV-vis spectrophotometric analysis.
Data set [8] is described as follows: Metal chelating activity of the compound assessed as Fe2+-compound complex formation at 30 uM after 5 mins by UV-vis spectrophotometric analysis.
Data set [9] concerns SH-SY5Y. Briefly: Inhibition of H2O2-induced ROS generation in human SH-SY5Y cells at 5 uM preincubated for 30 mins followed by H2O2 addition and measured after 90 mins by DCFH-DA staining-based fluorescence assay. Format: functional, cell-based.
The nature of data set [10]: Metal chelating activity of the compound assessed as Al3+-compound complex formation at 30 uM after 5 mins by UV-vis spectrophotometric analysis.
A short description of data set [11]: Cytotoxicity against human SH-SY5Y cells after 48 hrs by MTS assay. The format is cell-based. The settings on record: read-out: LD50.
The nature of data set [12]: Metal chelating activity of the compound assessed as Mg2+-compound complex formation at 30 uM after 5 mins by UV-vis spectrophotometric analysis.
Data set [13] is described as follows: Metal chelating activity of the compound assessed as Cu2+-compound complex formation at 30 uM after 5 mins by UV-vis spectrophotometric analysis.
The nature of data set [14]: Metal chelating activity of the compound assessed as Zn2+-compound complex formation at 30 uM after 5 mins by UV-vis spectrophotometric analysis.
The nature of data set [15]: Permeability across apical to basolateral side in human Caco2 cells at 100 uM after 20 mins by HPLC-UV analysis. Format: ADME, cell-based. The settings on record: Caco-2. (Passage across Caco-2 layers is used to estimate intestinal permeability.)
Data set [16] in a line: Metal chelating activity of the compound assessed as Mn2+-compound complex formation at 30 uM after 5 mins by UV-vis spectrophotometric analysis.
Data set [17] can be described thus: Metal chelating activity of the compound assessed as Co2+-compound complex formation at 30 uM after 5 mins by UV-vis spectrophotometric analysis.
Data set [18] can be described thus: Permeability across basolateral to apical side in human Caco2 cells at 100 uM after 20 mins by HPLC-UV analysis. Format: ADME, cell-based. Particulars: Caco-2.
Data set [19] is described as follows: Efflux ratio of permeability from basolateral to apical over apical to basolateral side in human Caco2 cells at 100 uM after 20 mins by HPLC-UV analysis. The format is ADME, cell-based. The settings on record: Caco-2.
The target in data set [20] is T1, Cholinesterase. Briefly: Competitive inhibition of human BChE using butyrylthiocholine iodide as substrate preincubated for 5 mins followed by substrate addition and measured for 1 min by Lineweaver Burk plot analysis.
The next data set concerns human recombinant BChE. As to the kind of experiment: Selectivity index, ratio of LD50 for human SH-SY5Y cells to IC50 for human recombinant BChE. Format: toxicity. The settings on record: read-out: Ratio LD50/IC50.

The source made the active and inactive calls. No cut-off for these calls is given here.

As a reminder, the IC50 is the concentration needed to halve the response being measured. In general, Papp A→B refers to the apparent permeability from the apical to the basolateral side of a cell layer. The Papp B→A is how fast a substance crosses the layer from the basolateral side. For orientation: efflux ratio means the permeability from basolateral to apical divided by that in the opposite direction, in the common usage. The Ki is the equilibrium dissociation constant of an inhibitor or competing ligand from its target. A high value points to weaker binding.

T1 sequence (P06276 whole entry): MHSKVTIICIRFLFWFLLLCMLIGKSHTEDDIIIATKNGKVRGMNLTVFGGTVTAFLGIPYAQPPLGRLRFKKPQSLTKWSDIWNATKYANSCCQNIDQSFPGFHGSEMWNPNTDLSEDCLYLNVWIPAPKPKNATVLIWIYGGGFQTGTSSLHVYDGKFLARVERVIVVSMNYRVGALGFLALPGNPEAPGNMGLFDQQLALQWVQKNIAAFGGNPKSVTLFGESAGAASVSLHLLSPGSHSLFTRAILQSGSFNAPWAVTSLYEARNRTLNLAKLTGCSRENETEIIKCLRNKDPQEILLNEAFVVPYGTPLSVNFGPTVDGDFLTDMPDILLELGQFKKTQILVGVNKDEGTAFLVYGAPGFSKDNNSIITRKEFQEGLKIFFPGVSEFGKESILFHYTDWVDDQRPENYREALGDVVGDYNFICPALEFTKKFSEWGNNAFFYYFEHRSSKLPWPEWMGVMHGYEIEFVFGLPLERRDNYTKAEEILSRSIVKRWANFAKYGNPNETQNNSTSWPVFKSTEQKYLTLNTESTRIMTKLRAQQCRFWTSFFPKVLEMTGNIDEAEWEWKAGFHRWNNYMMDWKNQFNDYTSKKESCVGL
Acetylcholinesterase (AChE), sequence (P22303 whole entry): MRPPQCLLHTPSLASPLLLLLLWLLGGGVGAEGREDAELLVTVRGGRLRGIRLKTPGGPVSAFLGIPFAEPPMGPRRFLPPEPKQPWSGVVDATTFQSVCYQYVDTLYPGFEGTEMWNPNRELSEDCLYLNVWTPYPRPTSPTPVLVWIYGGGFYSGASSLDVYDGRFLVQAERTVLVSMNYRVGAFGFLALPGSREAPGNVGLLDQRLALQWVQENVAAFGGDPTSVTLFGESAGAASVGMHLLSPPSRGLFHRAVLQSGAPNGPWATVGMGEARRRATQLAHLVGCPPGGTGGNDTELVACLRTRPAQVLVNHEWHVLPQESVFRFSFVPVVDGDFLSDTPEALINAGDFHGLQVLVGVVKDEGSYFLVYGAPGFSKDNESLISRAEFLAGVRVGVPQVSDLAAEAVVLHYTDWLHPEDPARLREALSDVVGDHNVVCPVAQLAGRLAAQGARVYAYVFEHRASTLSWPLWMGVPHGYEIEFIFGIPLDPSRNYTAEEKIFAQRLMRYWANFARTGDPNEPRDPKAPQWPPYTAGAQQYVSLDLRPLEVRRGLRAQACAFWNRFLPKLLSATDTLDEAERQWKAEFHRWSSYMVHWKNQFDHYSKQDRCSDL

As to `CC(=O)NC1=NN(C(C)=O)C(C)(c2ccccc2)S1` (centres undefined), the half-inhibitory concentration (IC50) on Cholinesterase [1] turned out to be 4.9 nM.
In the case of `Oc1cccc2cccnc12`, the Activity entry in data set [2] is “Active”.
`CN(C)CCN(CC1CCCN(C2Cc3ccccc3C2)C1)C(=O)[C@@H]1N=C(c2ccccc2O)CS1` (mixture of isomers) yielded a half-inhibitory concentration (IC50) against Cholinesterase [3] of 229 nM. The compound also registered an activity at 1 min, 10 µM in data set [4] of 72.9%.
On the same counts, the results for `CN(C)CCN(CC1CCCN(C2Cc3ccccc3C2)C1)C(=O)c1csc(Nc2ccccn2)n1` (racemic) are 635 nM and > 80%.
On the same counts, the results for `CN(C)CCN(CC1CCCN(Cc2csc(Nc3ccccn3)n2)C1)C(=O)c1ccc2ccccc2c1` (racemic) are 103 nM and > 80%.
On Cholinesterase [3], `COCCN(CC1CCCN(C2Cc3ccccc3C2)C1)C(=O)c1ccc2cccnc2c1O` (racemic) came in with a half-maximal inhibitory concentration (IC50) of 266 nM. Moreover, in data set [4], the activity at 1 min, 10 µM was > 80%.
The corresponding values for `COc1ccc(C(=O)N(CCN(C)C)CC2CCCN(C3Cc4ccccc4C3)C2)cc1` (racemic) are 237 nM and > 80%.
The compound `Cc1c(C)c2c(c(C)c1O)CCC(C)(C(=O)N(CCN(C)C)CC1CCCN(C3Cc4ccccc4C3)C1)O2` (racemic) displayed an IC50 at Cholinesterase [3] of 6920 nM. Also, in data set [4], the activity at 1 min, 10 µM was > 80%.
As for `CN(C)CCN(CC1CCCN(C2Cc3ccccc3C2)C1)C(=O)c1cc2ccccc2oc1=O` (racemic), the IC50 at Cholinesterase [3] was found to be 9.5 nM. Moreover, in [4], the activity at 1 min, 10 µM is > 80%.
Consider `CN(C)CCN(CC1CCCN(C2Cc3ccccc3C2)C1)C(=O)c1ccc2cccnc2c1O` (racemic), for which the Activity result in data set [5], in [7], in [8], in data set [10], in data set [12] and in data set [13] was “Active” each time. For the same compound, the Activity entry in data set [14], in [16], in data set [17] and in data set [2] was “Active” each time. The Activity result in the data set on SH-SY5Y [6] was “inactive”. Also, the inhibition result in the data set with SH-SY5Y [9] is “Active”. The CC50 at 48 h in data set [11] turned out to be 9550 nM. The Papp A→B at 20 min, 100 µM in data set [15] amounted to 15.1 ×10⁻⁶ cm/s. Also, the activity at 1 min, 10 µM in data set [4] was > 80%. Besides, in data set [18], the basolateral-to-apical permeability (Papp B→A) at 20 min, 100 µM amounted to 22.8 ×10⁻⁶ cm/s.
In turn, `CN(C)CCN(CC1CCCN(C2Cc3ccccc3C2)C1)C(=O)c1ccc2c([N+](=O)[O-])ccc(O)c2n1` (racemic) gave an IC50 against Cholinesterase [3] of 1610 nM. Moreover, in data set [4], the activity at 1 min, 10 µM is > 80%.
The corresponding values for `CN(C)CCN(CC1CCCN(C2Cc3ccccc3C2)C1)C(=O)c1cccc(O)c1` (racemic) are 2490 nM and > 80%.
On Cholinesterase [3], `CN(C)CCN(CC1CCCN(C2Cc3ccccc3C2)C1)C(=O)c1cn2cccc(O)c2n1` (racemic) had an IC50 of 135 nM. For the same compound, the activity at 1 min, 10 µM in [4] was > 80%.
On the same counts, the results for `CN(C)CCN(CC1CCCN(C2Cc3ccccc3C2)C1)C(=O)c1ccc(O)cc1O` (racemic) are 460 nM and > 80%.
On the same counts, the results for `CN(C)CCN(CC1CCCN(Cc2ccc3cccc(O)c3n2)C1)C(=O)c1ccc2ccccc2c1` (racemic) are 48.1 nM and > 80%.
On the same counts, the results for `CN(C)CCN(CC1CCCN(C2Cc3ccccc3C2)C1)C(=O)/C=C/c1ccc(O)cc1` (racemic) are 71 nM and > 80%.
Compound `CN(C)CCN(CC1CCCN(C2Cc3ccccc3C2)C1)C(=O)c1cc([N+](=O)[O-])c2cccnc2c1O` (racemic) showed an IC50 on Cholinesterase [3] of 28 nM. The activity at 1 min, 10 µM in [4] is > 80%.
`CN(C)CCN(CC1CCCN(C2Cc3ccccc3C2)C1)C(=O)c1cc(O)c2cccc(O)c2n1` (racemic): it took 19 nM to reach half-maximal inhibition against Cholinesterase [3] (IC50). Moreover, the activity at 1 min, 10 µM in [4] was > 80%.
The corresponding values for `CN(C)CCN(CC1CCCN(C2Cc3ccccc3C2)C1)C(=O)c1ccc(O)nc1` (racemic) are 21000 nM and > 80%.
As for `CN(C)CCN(CC1CCCN(C2Cc3ccccc3C2)C1)C(=O)c1ccc2cccc(O)c2n1` (racemic), the Activity entry (in the data set with SH-SY5Y [6]; in data set [7]; in data set [8]; in data set [10]; in data set [13]; in data set [14]) was “Active” in each case. For the same compound, the Activity result in [17] and in data set [2] was “Active” in each case. Moreover, the inhibition result in the data set with SH-SY5Y [9] is “Active”. Moreover, the CC50 at 48 h in [11] came out at 9700 nM. Further, the efflux ratio at 20 min, 100 µM in [19] amounted to 1.6. On Cholinesterase [20], this compound gave a Ki of 1.09 nM. The compound also yielded a Papp A→B at 20 min, 100 µM in data set [15] of 21.5 ×10⁻⁶ cm/s. On Cholinesterase [3], this compound yielded an IC50 of 11.1 nM. Moreover, the selectivity ratio in the data set with human recombinant BChE is > 700. The activity at 1 min, 10 µM in data set [4] turned out to be 75.8%. Besides, the Papp B→A at 20 min, 100 µM in [18] was determined as 35.1 ×10⁻⁶ cm/s.
At Cholinesterase [3], `CN(C)CCN(CC1CCCN(C2Cc3ccccc3C2)C1)C(=O)c1ccc(O)cc1` (racemic) returned a concentration for half-maximal inhibition (IC50) of 1790 nM. In addition, the activity at 1 min, 10 µM in data set [4] was > 80%.

Values taken from ChEMBL document CHEMBL4270567, “Multi-target-directed ligands for treating Alzheimer's disease: Butyrylcholinesterase inhibitors displaying antioxidant and neuroprotective activities” (Eur J Med Chem, 2018).
